Laboratory results from US7855292B2, “Sulfonamide compounds” (Janssen Pharmaceutica NV, priority 2004, dated 2010).

Assays:
CCK-1 receptor = biological target: T1, CCK-1 receptor (Homo sapiens, UniProt P32238); assay: CCK1 binding assay ([125I]-BH-CCK-8S displacement, CHO-K1 membranes); settings: membranes of CHO-K1 cells stably transfected with the CCK-1 receptor, 20 pM [125I]-BH-CCK-8S, 0.3 μM PD-134,308 present, 60 min at 21±3° C.; for Ki: read-out: CCK1 pKi (converted)
T1 construct: expressed in transfected cells; host or cells: CHO-K1
T1 sequence (P32238 1-428): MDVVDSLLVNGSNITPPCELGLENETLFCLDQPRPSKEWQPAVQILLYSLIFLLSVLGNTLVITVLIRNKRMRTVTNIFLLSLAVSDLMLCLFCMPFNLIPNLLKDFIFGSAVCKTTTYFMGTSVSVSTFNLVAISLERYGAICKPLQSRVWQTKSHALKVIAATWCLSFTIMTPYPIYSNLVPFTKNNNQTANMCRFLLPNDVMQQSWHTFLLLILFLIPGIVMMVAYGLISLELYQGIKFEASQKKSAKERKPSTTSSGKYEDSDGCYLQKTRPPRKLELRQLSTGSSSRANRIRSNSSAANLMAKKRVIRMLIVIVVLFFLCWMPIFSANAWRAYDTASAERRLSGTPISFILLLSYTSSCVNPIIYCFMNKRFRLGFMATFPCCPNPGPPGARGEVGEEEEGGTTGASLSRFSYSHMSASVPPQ
Outline: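 Membranes from CHO-K1 cells stably expressing CCK-1 incubated 1 h at 21±3° C with 20 pM [125I]-BH-CCK-8S in HEPES buffer pH 7.2 containing 0.3 μM PD-134,308 to block CCK-2. Bound radioactivity read by gamma counting after filtration. pKi derived via Cheng-Prusoff, with specific binding defined using 2-NAP.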

CCK2 receptor = biological target: T2, CCK2 receptor (Homo sapiens, UniProt P32239); assay: CCK2 binding assay ([125I]-BH-CCK-8S displacement, HEKZFP membranes); settings: membranes of doxycycline-induced HEKZFP cells, 20 pM [125I]-BH-CCK-8S, 60 min at 21±3° C.; for Ki: read-out: CCK2 pKi (converted)
T2 construct: analyzed for ZFP expression as well as CCK2R induction upon addition of doxycycline to the culture medium; endogenous in cells
T2 sequence (P32239 1-447): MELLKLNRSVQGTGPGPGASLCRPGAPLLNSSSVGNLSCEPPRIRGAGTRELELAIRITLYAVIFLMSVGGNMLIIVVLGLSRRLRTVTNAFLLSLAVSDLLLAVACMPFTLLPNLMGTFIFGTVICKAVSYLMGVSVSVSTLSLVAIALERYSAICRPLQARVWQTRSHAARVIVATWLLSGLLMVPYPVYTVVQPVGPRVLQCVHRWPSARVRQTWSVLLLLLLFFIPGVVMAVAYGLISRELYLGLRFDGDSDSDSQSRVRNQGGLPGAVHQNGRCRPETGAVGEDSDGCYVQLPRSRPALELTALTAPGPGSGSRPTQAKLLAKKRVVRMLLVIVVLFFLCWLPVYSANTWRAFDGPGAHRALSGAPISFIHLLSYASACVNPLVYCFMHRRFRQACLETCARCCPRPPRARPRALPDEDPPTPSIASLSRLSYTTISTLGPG

Structure (SMILES) | Ki (CCK-1 receptor) | Ki (CCK2 receptor) | CCK1 pKi (CCK-1 receptor) | CCK2 pKi (CCK2 receptor)
COC(=O)[C@H](Cc1ccc(F)c(Br)c1)NC(=O)c1ccc(I)cc1NS(=O)(=O)c1cccc2nsnc12 [Example 123, (S)-2-[2-(Benzo[1,2,5]thiadiazole-4-sulfonylamino)-4-iodo-benzoylamino]-3-(3-bromo-4-fluoro-phenyl)-propionic acid methyl ester] | 100 nM | 158 nM |  | 
O=C(N[C@@H](Cc1ccc(F)c(Br)c1)C(=O)O)c1ccc(Br)cc1NS(=O)(=O)c1cccc2nsnc12 [Example 162, (S)-2-[2-(Benzo[1,2,5]thiadiazole-4-sulfonylamino)-4-bromo-benzoylamino]-3-(3-bromo-4-fluoro-phenyl)-propionic acid] |  |  | 6.6 | 8.2
O=C(N[C@@H](Cc1ccc(Cl)c(Cl)c1)C(=O)NCc1ccc(F)cc1)c1ccc(Cl)cc1NS(=O)(=O)c1cccc2nsnc12 [Example 130, (S)-2-(Benzo[1,2,5]thiadiazole-4-sulfonylamino)-4-chloro-N-[2-(3,4-dichloro-phenyl)-(4-fluoro-benzylcarbamoyl)-ethyl]-benzamide] | 398 nM | 316 nM |  | 
O=C(N[C@H](Cc1ccc(Cl)cc1Cl)C(=O)O)c1ccc(Cl)cc1NS(=O)(=O)c1c(F)cccc1F [Example 46, 2-[4-Chloro-2-(2,6-difluoro-benzenesulfonylamino)-benzoylamino]-3-(2,4-dichloro-phenyl)-propionic acid] | 1580 nM | 63.1 nM |  | 
O=C(N[C@@H](Cc1ccc(F)c(Br)c1)C(=O)O)c1ccc(I)cc1NS(=O)(=O)c1cccc2nccnc12 [Example 126, (S)-3-(3-Bromo-4-fluoro-phenyl)-2-[4-iodo-2-(quinoxaline-5-sulfonylamino)-benzoylamino]-propionic acid] | 251 nM | 5.01 nM |  | 
C[C@H](CNC(=O)c1ccc(Br)cc1NS(=O)(=O)c1c(F)cccc1F)c1ccccc1 [Example 37, (S)-4-Bromo-2-(2,6-difluoro-benzenesulfonylamino)-N-(2-phenyl-propyl)-benzamide] | 398 nM | 3980 nM |  | 
CC(CNC(=O)c1ccc(Cl)cc1NS(=O)(=O)c1cccc2nccnc12)c1ccc(Cl)c(Cl)c1 (racemic) [Example 59, (±)-4-Chloro-N-[2-(3,4-dichloro-phenyl)-propyl]-2-(quinoxaline-5-sulfonylamino)-benzamide] | 79.4 nM | 794 nM |  | 
CC(CNC(=O)c1ccc(Br)cc1NS(=O)(=O)c1c(F)cccc1F)c1ccc(Cl)c(Cl)c1 (stereo not shown) [Example 30, 4-Bromo-N-[2-(3,4-dichloro-phenyl)-propyl]-2-(2,6-difluoro-benzenesulfonylamino)-benzamide] | 63.1 nM | 2510 nM |  | 
COC(=O)[C@H](Cc1ccc(Cl)cc1)NC(=O)c1ccc(Cl)cc1NS(=O)(=O)c1ccc(F)cc1F [Example 71, (S)-2-[4-Chloro-2-(2,4-difluoro-benzenesulfonylamino)-benzoylamino]-3-(4-chloro-phenyl)-propionic acid methyl ester] | 126 nM | 2510 nM |  | 
COC(=O)[C@H](Cc1ccc(F)c(Br)c1)NC(=O)c1cc(Cl)c(Cl)cc1NS(=O)(=O)c1cccc2nccnc12 [Example 153, (S)-3-(3-Bromo-4-fluoro-phenyl)-2-[4,5-dichloro-2-(quinoxaline-5-sulfonylamino)-benzoylamino]-propionic acid methyl ester] |  |  | 6.7 | 6.6
O=C(N[C@H](Cc1ccc(Cl)cc1)C(=O)O)c1ccc(I)cc1NS(=O)(=O)c1cccc2nccnc12 [Example 15, (R)-3-(4-Chloro-phenyl)-2-[4-iodo-2-(quinoxaline-5-sulfonylamino)-benzoylamino]-propionic acid] | 39.8 nM | 200 nM |  | 

Further lines, results first:

Ki (CCK-1 receptor) | Ki (CCK2 receptor) | CCK1 pKi (CCK-1 receptor) | CCK2 pKi (CCK2 receptor) | Structure (SMILES)
316 nM | 7940 nM |  |  | C[C@H](NC(=O)c1ccc(Cl)cc1NS(=O)(=O)c1cccc2nsnc12)C(O)(c1ccccc1)c1ccccc1 [Example 74, (S)-2-(Benzo[1,2,5]thiadiazole-4-sulfonylamino)-4-chloro-N-(2-hydroxy-1-methyl-2,2-diphenyl-ethyl)-benzamide]
 |  | 7.6 | 5.9 | C[C@@H](NC(=O)c1ccc(Cl)cc1NS(=O)(=O)c1cccc2nsnc12)[C@@H](O)c1cccc(Br)c1 [Example 108, 2-(Benzo[1,2,5]thiadiazole-4-sulfonylamino)-N-[(2S,1R)-2-(3-bromo-phenyl)-2-hydroxy-1-methyl-ethyl]-4-chloro-benzamide]
501 nM | 20 nM |  |  | O=C(N[C@@H](Cc1cc(F)c(Cl)cc1Cl)C(=O)O)c1ccc(I)cc1NS(=O)(=O)c1cccc2nsnc12 [Example 134, (S)-2-[2-(Benzo[1,2,5]thiadiazole-4-sulfonylamino)-4-iodo-benzoylamino]-3-(2,4-dichloro-5-fluoro-phenyl)-propionic acid]
 |  | 6.6 | 8.0 | O=C(N[C@@H](Cc1ccc(F)c(Br)c1)C(=O)O)c1ccc(Cl)cc1NS(=O)(=O)c1cccc2nsnc12 [Example 156, (S)-2-[2-(Benzo[1,2,5]thiadiazole-4-sulfonylamino)-4-chloro-benzoylamino]-3-(3-bromo-4-fluoro-phenyl)-propionic acid]
3160 nM | 39.8 nM |  |  | O=C(N[C@@H](Cc1ccc(F)cc1)C(=O)O)c1ccc(Cl)cc1NS(=O)(=O)c1cccc2nsnc12 [Example 76, (S)-2-[2-(Benzo[1,2,5]thiadiazole-4-sulfonylamino)-4-chloro-benzoylamino]-3-(4-fluoro-phenyl)-propionic acid]
63.1 nM | 631 nM |  |  | CC(CNC(=O)c1cc(Cl)ccc1NS(=O)(=O)c1cccc2nsnc12)c1ccc(Cl)c(Cl)c1 (racemic) [Example 16, (±)-2-(Benzo[1,2,5]thiadiazole-4-sulfonylamino)-5-chloro-N-[2-(3,4-dichloro-phenyl)-propyl]-benzamide]
79.4 nM | 794 nM |  |  | C[C@@H](NC(=O)c1ccc(I)cc1NS(=O)(=O)c1cccc2nsnc12)[C@@H](O)c1ccc(Cl)cc1 [Example 99, 2-(Benzo[1,2,5]thiadiazole-4-sulfonylamino)-N-[(2S,1R)-2-(4-chloro-phenyl)-2-hydroxy-1-methyl-ethyl]-4-iodo-benzamide]
1000 nM | 3980 nM |  |  | O=C(NCCc1ccc(Cl)cc1Cl)c1ccccc1NS(=O)(=O)c1cccc2nsnc12 [Example 75, 2-(Benzo[1,2,5]thiadiazole-4-sulfonylamino)-N-[2-(2,4-dichloro-phenyl)-ethyl]-benzamide]
1000 nM | 39.8 nM |  |  | O=C(N[C@@H](Cc1ccccc1)C(=O)O)c1cc(Cl)c(Cl)cc1NS(=O)(=O)c1cccc2nsnc12 [Example 3, 2-[2-(Benzo[1,2,5]thiadiazole-4-sulfonylamino)-4,5-dichloro-benzoylamino]-3-phenyl-propionic acid]
158 nM | 15.8 nM |  |  | O=C(N[C@@H](Cc1ccc(Cl)c(Cl)c1)C(=O)O)c1ccc(Br)cc1NS(=O)(=O)c1cccc2nsnc12 [Example 131, (S)-2-[2-(Benzo[1,2,5]thiadiazole-4-sulfonylamino)-4-bromo-benzoylamino]-3-(3,4-dichloro-phenyl)-propionic acid]
25.1 nM | 251 nM |  |  | CC(CNC(=O)c1ccc(I)cc1NS(=O)(=O)c1cccc2nsnc12)c1ccc(Cl)c(Cl)c1 (stereo not shown) [Example 39, 2-(Benzo[1,2,5]thiadiazole-4-sulfonylamino)-N-[2-(3,4-dichloro-phenyl)-propyl]-4-iodo-benzamide]
12.6 nM | 501 nM |  |  | CC(CNC(=O)c1ccc(Cl)cc1NS(=O)(=O)c1cccc2nsnc12)c1ccc(Cl)c(Cl)c1 (racemic) [Example 57, (±)-2-(Benzo[1,2,5]thiadiazole-4-sulfonylamino)-4-chloro-N-[2-(3,4-dichloro-phenyl)-propyl]-benzamide]
